Experimental data: patent publication US12600740B2, “Fluorinated N-acetyl glucosamine analogs and xylose derivatives” (UTI Limited Partnership, priority 2018, dated 2026)
“Also recorded” adds a separate entry of the source.

What was measured:
splenocytes [1] = assay: Splenocyte thymidine proliferation assay (anti-CD3/anti-CD28); format: cell-based, mouse; settings: 25 μM, 48 hours
Procedure: It was assessed whether the glucosamine analogs have immunomodulatory properties on splenocytes isolated in culture. T cells within the splenocyte pool were polyclonally activated with anti-CD3 and anti-CD28 antibodies in the presence of compounds for 48 hours, and proliferation was determined by the uptake of tritiated thymidine and expressed as counts per minute. The relative change in proliferation of treated versus control splenocytes was taken in order to rank the compounds across multiple independent experiments (FIG. 8a).
The spleens were isolated from 8-10-week-old female C57BL/6 mice and homogenized. The cells were isolated by Ficoll gradient and spun for 30 min at 1,800 r.p.m. The cell suspension was removed and the cells were washed once with PBS. The cell pellet was subsequently re-suspended in Roswell Park Memorial Institute media containing 10% fetal bovine serum, 1% penicillin/streptomycin, 1% sodium pyruvate and 1% L-glutamine. Trypan blue exclusion was used to count live cells, and the cells were plated at 2.5×10^5 cells per well in a round-bottom 96-well plate and activated with 1,000 ng/ml plate-bound anti-CD3 and 1,000 ng/ml anti-CD28 suspended in media to preferentially activate T lymphocytes. Compounds were added at final concentrations of 25 μM. The cells were kept at 37° C. and 5% CO2 for 30 h, after which 10 μl/well (1 μCi per well) of 3H-thymidine was added for 18 h. The cells containing thymidine were harvested onto filter mats using a cell harvester and mats were allowed to dry for 24 h. The results were read by liquid scintillation counts.

TNFα = TNFα ELISA of LPS-stimulated bone marrow-derived macrophages; format: cell-based, mouse; settings: BMDMs, 50 μM, LPS 100 ng/ml, 24 hours
Procedure: Multiple Sclerosis: Mechanisms and Immunotherapy. Neuron 97, 742-768 (2018)]. It was tested whether the sugar analogs could affect the activity of macrophages, using bone marrow-derived macrophages (BMDMs) stimulated with lipopolysaccharide (LPS, 100 ng/ml). The sugar analogs were added at 50 μM prior to LPS, and the conditioned medium was collected after 24 hours and assayed for levels of the secreted cytokine TNFα. […] Testing Toxicity of Sugar Analogs
Femurs were carefully removed from euthanized female C57BI/6 mice, and marrow was flushed into a culture plate with cold complete bone marrow growth medium (DMEM, 10% fetal bovine serum, and the supplements 1% penicillin/streptomycin, 1% glutamine, 1% non-essential amino acids, and 10% supernatant from L929 cell-line enriched in macrophage-colony stimulating factor). Cells were spun at 1100 rpm for 10 minutes, resuspended in fresh growth medium and plated at 10×10^6 cells/ml in a 10 cm culture dish. Cells were grown in DMEM with supplements and L929 supernatant for 5 days, then half the medium was replaced with fresh growth medium. On day 7 growth medium was replaced with DMEM with 10% FBS and supplements. Cells were used on day 8, and experiments were conducted in DMEM with 1% FBS and supplements unless otherwise specified.
BMDM were plated at 25,000 cells in 96-well plates in DMEM+L929 media. After 24 hours media was changed to DMEM+1% FBS. One hour later, cells were treated with […] compounds or PBS. After 1 hour LPS (final concentration 100 ng/ml) was added. Following 24 hours, conditioned media was harvested for TNFα ELISA (Thermo Scientific), which was performed according to manufacturer's instructions.

[2] = system: CSPG production by astrocytes; assay: Western blot of astrocyte conditioned medium, MAB2030 (chondroitin sulfate GAG stubs); format: cell-based, mouse; settings: astrocyte conditioned media, 50 μM, 48 hours
Description: Astrocytes are major producers of CSPGs following injury in the CNS [Jones, L. L., Margolis, R. U. & Tuszynski, M. H. The chondroitin sulfate proteoglycans neurocan, brevican, phosphacan, and versican are differentially regulated following spinal cord injury. Experimental Neurology 182, 399-411 (2003); Tang, X., Davies, J. E. & Davies, S. J. Changes in distribution, cell associations, and protein expression levels of NG2, neurocan, phosphacan, brevican, versican V2, and tenascin-C during acute to chronic maturation of spinal cord scar tissue. […] The Journal of neuroscience: the official journal of the Society for Neuroscience 20, 2427-2438 (2000); McKeon, R. J., Jurynec, M. J. & Buck, C. R. The chondroitin sulfate proteoglycans neurocan and phosphacan are expressed by reactive astrocytes in the chronic CNS glial scar. The Journal of neuroscience: the official journal of the Society for Neuroscience 19, 10778-10788 (1999); Haas, C. A., Rauch, U., Thon, N., Merten, T. & Deller, T. Entorhinal cortex lesion in adult rats induces the expression of the neuronal chondroitin sulfate proteoglycan neurocan in reactive astrocytes. The Journal of neuroscience: the official journal of the Society for Neuroscience 19, 9953-9963 (1999)] and they may help drive progression of disability in a model of progressive MS [Mayo, L. et al. Regulation of astrocyte activation by glycolipids drives chronic CNS inflammation. Nature medicine 20, 1147-1156 (2014)]. Therefore astrocytes were used as model cells to determine the ability of the sugar analogs to reduce synthesis of CSPGs. Since CSPGs are exported out of cells, the conditioned media from analog-treated astrocytes were probed by Western blots (FIG. 4). We used antibodies to both the stubs of chondroitin sulfate GAGs attached to the core protein (MAB2030) and to intact 4-sulfated chondroitin sulfate sidechains (2H6) (FIG. 4a). Particularly, we used the 2H6 antibody to label intact 4-sulfated chondroitin sulfate sidechains, and the MAB2030 antibody to detect the stubs of chondroitin sulfate GAGs attached to the core protein. […] 1998, 160 (8), 3812-3819. Poole Poole C. A.; Glant T. T.; Schofield J. R.; Chondrons from articular cartilage. (IV). Immunolocalization of proteoglycan epitopes in isolated canine tibial chondrons. J. Histochem. Cytochem. 1991, 39 (9), 1175-1187].
Astrocytes were plated in uncoated 6-well plates (3 replicate wells per treatment) at 1×10^6 cells/well in mixed glial media, and incubated at 5% CO2 and 37° C. Astrocytes were treated with compounds at 50 μM in AIM-V media for 48 hours. Media was pooled from 3 replicate wells in 15 ml 100K cutoff centricon tubes (EMD Millipore, #UFC905008), which were spun on an ultracentrifuge at 5000× g for 2 cycles of 10 minutes each. When harvested, the cell lysate was kept on ice for 5 minutes with 250 μL of RIPA buffer (ThermoFisher Scientific #89900) containing proteinase inhibitor, and then collected and centrifuged at 14000 g for 5 minutes. Total protein was quantified using a Bradford assay. Conditioned media that were to be probed for chondroitin 4-sulfate GAGs (Millipore, #MAB2030) were first digested with 0.2 U/ml chondroitinase ABC for overnight at 37° C. to remove chondroitin sulfate sidechains. Blots that were to be probed with CSA (2H6, Cosmo) or CS56 (Abcam #ab11570) were not exposed to chondroitinase ABC. Samples were heat denatured with NuPAGE® LDS Sample buffer at 70° C. for 10 minutes and then loaded into 3-8% tris-acetate pre-cast gels (ThermoFisher, #EA0478BOX). The gels were electrophoresed at a constant 150 V for 90 minutes and transferred to a […] polyvinylidene fluoride membrane at a constant 250 mA for 60 minutes. The membranes were blocked for one hour with 10% skim milk in Tris-buffered saline (TBS; 0.9% NaCl, 10 mM Tris-HCl, pH 7.5) containing 0.5% Tween 20 (TBS-T). Primary antibodies were added in 3% skim milk and incubated overnight at 4° C. […]

splenocytes [3] = assay: Propidium iodide DNA cell cycle flow cytometry of splenocytes; format: cell-based, mouse; settings: activated splenocytes
Description: Cell-cycle flow cytometry with propidium iodide was used to corroborate the above results, and ensure the reduction in proliferation was not due to cell death. […] To further investigate whether the reduction of proliferation was due to cell death, Annexin V and propidium iodide staining were used to differentiate necrotic cells (propidium iodide+), apoptotic cells (annexin V+), dead cells (propidium iodide+ and annexin V+), and live cells (propidium iodide-annexin V−).
Cell cycle staining with propidium iodide (PI) and analysis by flow cytometry gives percentage of cells in apoptosis, G1, G2, and synthesis, and apoptosis. Following a membrane permeabilization, PI chelates to DNA and level of staining specifies the stage of the cell cycle (e.g., G2 phase will have twice the DNA and thus twice the PI signal as G1 phase, apoptotic cells contain less DNA than healthy cells and are identified by low PI staining). 1×10^6 splenocytes were used per sample, with four replicates per condition. Cells were collected into a tube with PBS and centrifuged (200 r.p.m. for 5 minutes). […] Suspension was transferred to a FACs tube and analyzed. Annexin V/Propidium iodide staining was detected using the Annexin V FITC apoptosis detection kit (BD Biosciences, #556547), which was performed according to manufacturer's instructions.

[4] = system: mice demyelinated with lysolecithin; assay: Lysolecithin demyelination of the mouse spinal cord; format: in vivo; settings: 100 mg/kg IP twice a day, Day 3 to Day 6; Day 7 post-demyelination; listed as difluorosamine
Procedure: On Day 0, 7 mice were injected with 0.5 μL of 1.0% lysolecithin in the ventral funiculus of the spinal cord. Thereafter, 4 mice were treated from Day 3 to Day 6 with saline vehicle IP twice a day. 3 mice were treated from Day 3 to Day 6 with difluorosamine 100 mg/kg IP twice a day. On Day 7, mice were transcardially perfused with cold PBS and 4% PFA. Thoracic spinal cords were dissected, fixed and analyzed. Sections adjacent to lesion epicenters were triple-stained for Olig2 (cells of the oligodendrocyte lineage), PDGFRα (oligodendrocyte precursor cell) and MBP (myelin). The number of Olig2+, Olig2+ PDGFRα+ (oligodendrocyte precursor cell), and Olig2+ PDGFRα− (presumed mature oligodendrocytes) cells per field of view were quantified blindly. Statistics were conducted using 1-tailed t-tests.

With `CCC(=O)OCC1OC(O)C(NC(C)=O)C(OC(=O)CC)[C@@H]1F` (mixture of isomers) [Compound 11, 2-Acetamido-2,4-dideoxy-4-fluoro-3,6-di-O-propanoyl-α/β-D-glucopyranose] the splenocyte proliferation (splenocytes [1]) was “reduced splenocyte proliferation”, the “TNFα production by LPS-stimulated macrophages” value (TNFα) was “enhanced TNFα levels” and the “effect on CSPG production by astrocytes” value [2] was “did not lower CSPG production in astrocytes”.
In the case of `CC(=O)NC1C(O)OC(COC(C)=O)[C@@H](F)C1OC(C)=O` (stereo in doubt) [Compound 10], the “percentage of cells in cell cycle phases” value (splenocytes [3]) is reported as “reduced the percentage of cells in the S (DNA synthesis)-phase of the cell cycle”.
For `CC(=O)NC1C(OC(C)=O)OC(COC(C)=O)C(F)(F)C1OC(C)=O` [Compound 16, 2-Acetamido-1,3,6-tri-O-acetyl-2,4-dideoxy-4,4-difluoro-α/β-D-xylo-hexopyranose], the “percentage of Olig2+ oligodendrocyte lineage cells that are Olig2+ PDGFRα+ OPCs” value [4] was “significant increase; also recorded: increased the proportion of oligodendrocyte precursor cells (OPCs)”.
